Values joined by “and” are separate entries in the source; they are usually repeats but may differ in a detail not shown here. Equal values may be shown once.
Tests used:
[1] = target: T1, Carbonic anhydrase 2 (Homo sapiens, UniProt P00918)
[2] = Binding of 10 phosphate buffer; format: protein assay; details: Bos taurus
[3] = target: T1, Carbonic anhydrase 2; remark: listed apart in the source
[4] = target: T1, Carbonic anhydrase 2; remark: listed apart in the source
[5] = organism: Oryctolagus cuniculus; experiment: Maximum fall in ocular hypertension in the right eye of albino rabbits; format: functional
[6] = The aqueous solubility in 2% (+ = soluble, - = insoluble) solution was determined; format: physicochemical; details: buffer
[7] = The aqueous solubility in 2% solution was determined; soluble; format: physicochemical; details: buffer
[8] = The aqueous solubility in 2% solution was determined; insoluble; format: physicochemical; details: buffer

Structure (SMILES) | IC50 [1] [nM] | Binding [2] | IC50 [3] [nM] | Ki [4] [nM] | Activity [5] [mmHg] | Aqueous solubility [6] | Aqueous solubility [7] | Aqueous solubility [8]
CNC1CCS(=O)(=O)c2sc(S(N)(=O)=O)cc21.Cl (stereo not drawn) | 13.9 | 23.7% | 2.5 | 2.3 | -3.3 | Soluble |  | 
CCNC1CCS(=O)(=O)c2sc(S(N)(=O)=O)cc21.Cl (stereo not drawn) |  | 29.2% |  |  | -4.2 |  | Soluble | 
CC(C)CN[C@H]1CCS(=O)(=O)c2sc(S(N)(=O)=O)cc21 [SEZOLAMIDE] |  |  |  |  | -4.3 |  | Soluble | 
CCCNC1CCS(=O)(=O)c2sc(S(N)(=O)=O)cc21.Cl (stereo not drawn) | 9.2 | 19.8% | 1.5 | 1.1 | -8.7 |  |  | Insoluble
CC(C)CN[C@H]1CCS(=O)(=O)c2sc(S(N)(=O)=O)cc21.Cl [SEZOLAMIDE HYDROCHLORIDE] |  |  |  |  | -6.5 |  | Soluble | 
CCN(CC)C1CCS(=O)(=O)c2sc(S(N)(=O)=O)cc21.Cl (stereo not drawn) | 70 | 9% | 12.3 | 9.3 | -5.3 |  | Soluble | 
CCCCNC1CCS(=O)(=O)c2sc(S(N)(=O)=O)cc21.Cl (stereo not drawn) | 12.4 | 25.6% | 2.3 | 1.8 | -5.7 |  |  | Insoluble
CC(C)CN[C@@H]1CCS(=O)(=O)c2sc(S(N)(=O)=O)cc21.Cl |  |  |  |  | -1.3 |  | Soluble | 
CC(C)CN[C@H]1CCS(=O)(=O)c2sc(S(N)(=O)=O)cc21 |  | 12.3% and 12.8% |  |  |  |  |  | 
Cl.NC1CCS(=O)(=O)c2sc(S(N)(=O)=O)cc21 (stereo not drawn) | 9.2 | 32.1% | 3.2 | 3.7 | -3.3 |  | Soluble | 
NS(=O)(=O)c1cc2c(s1)S(=O)(=O)CCC2O (stereo not drawn) |  | 1.9% |  |  | -6.9 |  | Soluble | 

Reference: ChEMBL document CHEMBL1124372, “Thienothiopyran-2-sulfonamides: novel topically active carbonic anhydrase inhibitors for the treatment of glaucoma” (J Med Chem, 1989)
